What was measured:
[1] = Octanol-water partition coefficient, log P of the compound at pH 7.4; type: physicochemical
[2] = Therapeutic index, ratio of LD10 for BDF1 mouse to ED50 for mouse L1210 cells allografted in ip dosed BDF1 mouse; type: organism-based; conditions: in vivo, read-out: TI
L1210 = experiment: Antitumor activity against mouse L1210 cells allografted in ip dosed BDF1 mouse assessed as increase of life span of host measured up to 45 days; type: functional; conditions: 1080 h
Mus musculus = experiment: Toxicity in ip dosed BDF1 mouse; type: organism-based; conditions: in vivo
[3] = Octanol-water partition coefficient, log P of the compound; type: physicochemical

| Compound | logD [1] | selectivity ratio [2] | ED50 (L1210) | LD10 (Mus musculus) | logP ([3]; read-out: logP) | logP [3] |
| --- | --- | --- | --- | --- | --- | --- |
| O=NN(CCCl)C(=O)N[C@H]1CC[C@H](C(=O)O)CC1 | -1.1 | 0.57 | 17 mg/kg | 30 mg/kg |  |  |
| CCOC(=O)[C@H]1CC[C@H](NC(=O)N(CCCl)N=O)CC1 |  | 0.52 | 17 mg/kg | 33 mg/kg | 3.1 |  |
| CC(=O)OC[C@H]1CC[C@H](NC(=O)N(CCF)N=O)CC1 |  | 0.79 | 45 mg/kg | 57 mg/kg | 2.5 |  |
| CCOC(=O)[C@@H]1CCC[C@H](NC(=O)N(CCCl)N=O)C1 (relative stereo) |  | 0.56 | 28 mg/kg | 50 mg/kg | 3.1 |  |
| O=NN(CCCl)C(=O)N[C@H]1CC[C@H](O)CC1 |  | 0.4 | 14 mg/kg | 42 mg/kg | 1 |  |
| O=NN(CCCl)C(=O)N[C@H]1CC[C@@H](CC(=O)O)CC1 | -0.6 | 0.53 | 27 mg/kg | 51 mg/kg |  |  |
| CO[C@H]1CC[C@H](NC(=O)N(CCCl)N=O)CC1 |  | 0.52 | 23 mg/kg | 44 mg/kg | 2.4 |  |
| O=NN(CCCl)C(=O)N[C@H]1CCCC[C@H]1Cl (relative stereo) |  | 0.56 | 54 mg/kg | 96 mg/kg | 2.7 |  |
| COC(=O)[C@H]1CC[C@H](NC(=O)N(CCCl)N=O)CC1 |  | 0.54 | 14 mg/kg | 26 mg/kg | 2.6 |  |
| O=NN(CCF)C(=O)N[C@H]1CC[C@@H](C(=O)O)CC1 | -1.7 |  | 30 mg/kg | 29 mg/kg |  |  |
| O=NN(CCCl)C(=O)N[C@H]1CCC[C@@H](C(=O)O)C1 (relative stereo) | -1.1 | 0.62 | 21 mg/kg | 34 mg/kg |  |  |
| C[C@@H]1CCC[C@H](NC(=O)N(CCCl)N=O)C1 (relative stereo) |  | 0.38 | 45 mg/kg | 120 mg/kg | 3.3 |  |
| CC(=O)O[C@H]1CC[C@H](NC(=O)N(CCCl)N=O)CC1 |  | 0.4 | 18 mg/kg | 45 mg/kg | 2.6 |  |
| CCCCCC(C)NC(=O)N(CCCl)N=O (stereo not given) |  |  | 27 mg/kg | 57 mg/kg | 3.8 |  |
| O=NN(CCCl)C(=O)N[C@H]1CC[C@H](C[C@H]2CC[C@H](NC(=O)N(CCCl)N=O)CC2)CC1 |  | 0.38 | 96 mg/kg | 250 mg/kg | 3.1 |  |
| C[C@H]1S(=O)(=O)C[C@H](NC(=O)N(CCCl)N=O)CS1(=O)=O |  | 0.37 | 19 mg/kg | 51 mg/kg | -0.4 |  |
| O=NN(CCCl)C(=O)N[C@H]1CC[C@H](CCl)CC1 |  | 0.69 | 43 mg/kg | 62 mg/kg | 3.7 |  |
| CO[C@H]1CC[C@@H](NC(=O)N(CCCl)N=O)CC1 |  | 0.53 | 20 mg/kg | 38 mg/kg | 2.4 |  |
| O=NN(CCCl)C(=O)NCCCl [CARMUSTINE] |  | 0.49 | 20 mg/kg | 41 mg/kg | 1.5 |  |

| Compound | logD [1] | selectivity ratio [2] | ED50 (L1210) | LD10 (Mus musculus) | logP ([3]; read-out: logP) | logP [3] |
| --- | --- | --- | --- | --- | --- | --- |
| C[C@H]1CC[C@H](NC(=O)N(CCCl)N=O)CC1 |  | 0.43 | 18 mg/kg | 42 mg/kg | 3.3 |  |
| CC(=O)OC[C@H]1CC[C@H](NC(=O)N(CCCl)N=O)CC1 |  | 0.5 | 14 mg/kg | 28 mg/kg | 3.1 |  |
| O=NN(CCCl)C(=O)N[C@H]1CC[C@@H](C(=O)O)CC1 | -1.1 | 0.62 | 16 mg/kg | 26 mg/kg |  |  |
| O=NN(CCCl)C(=O)NC(C(=O)O)C1CCCCC1 (stereo not given) | 0 | 0.63 | 50 mg/kg | 73 mg/kg |  |  |
| O=NN(CCCl)C(=O)NC1CCCCC1 [LOMUSTINE] |  | 0.77 | 37 mg/kg | 48 mg/kg | 2.8 |  |
| O=NN(CCF)C(=O)N[C@H]1CC[C@H](C(=O)O)CC1 | -1.7 |  | 30 mg/kg | 56 mg/kg |  |  |
| C[C@H]1S(=O)(=O)C[C@@H](NC(=O)N(CCCl)N=O)CS1(=O)=O |  | 0.5 | 18 mg/kg | 36 mg/kg | -0.4 |  |
| C[C@H]1SC[C@@H](NC(=O)N(CCCl)N=O)CS1 |  | 0.53 | 16 mg/kg | 31 mg/kg | 2.6 |  |
| O=COC[C@H]1CC[C@H](NC(=O)N(CCCl)N=O)CC1 |  | 0.45 | 10 mg/kg | 22 mg/kg | 2.6 |  |
| O=NN(CCCl)C(=O)N[C@H]1CC[C@H](CC(=O)O)CC1 | -0.6 | 0.3 | 12 mg/kg | 40 mg/kg |  |  |
| COC(=O)[C@H]1CC[C@@H](NC(=O)N(CCCl)N=O)CC1 |  | 0.28 | 15 mg/kg | 54 mg/kg | 2.6 |  |
| O=NN(CCCl)C(=O)N[C@H]1CC[C@@H](NC(=O)N(CCCl)N=O)CC1 |  | 0.48 | 40 mg/kg | 84 mg/kg | 2.7 |  |
| O=NN(CCCl)C(=O)N[C@H]1CC[C@@H](O)CC1 |  | 0.48 | 22 mg/kg | 46 mg/kg | 1.1 |  |
| C[C@H]1CCC[C@H](NC(=O)N(CCCl)N=O)C1 (relative stereo) |  | 0.48 | 53 mg/kg | 110 mg/kg |  | 3.3 |
| O=NN(CCCl)C(=O)N[C@H]1CC[C@H](NC(=O)N(CCCl)N=O)CC1 |  | 0.26 | 71 mg/kg | 270 mg/kg | 2.7 |  |
| C[C@H]1CC[C@H](NC(=O)N(CCF)N=O)CC1 |  | 0.57 | 25 mg/kg | 44 mg/kg | 2.7 |  |
| CC(=O)O[C@H]1CC[C@H](NC(=O)N(CCF)N=O)CC1 |  | 0.5 | 18 mg/kg | 36 mg/kg | 2 |  |
| O=NN(CCCl)C(=O)N[C@H]1CCCC[C@@H]1Cl (relative stereo) |  | 0.63 | 36 mg/kg | 57 mg/kg | 2.7 |  |

From ChEMBL document CHEMBL3244324, “Synthesis of analogues of N-(2-chloroethyl)-N'-(trans-4-methylcyclohexyl)-N-nitrosourea for evaluation as anticancer agents” (J Med Chem, 1977)
